In patent publication US20240417405A1, “Substituted Spiro Derivatives” (Janssen Pharmaceutica NV, priority 2021, published 2024):

Legend:
[1] = tested on: MOLM14 cells; experiment: Proliferation assay, spheroid-like growth, MOLM14 (MLL-AF9 rearranged); assay type: cell-based, human; settings: Homo sapiens, MOLM-14, 192 h, 8 days, confluence as measure of spheroid size, read-out: spheroid assay_OneTime MOLM14 IC50
Experimental: The anti-proliferative effect of menin/MLL protein/protein interaction inhibitor test compounds was assessed in human leukemia cell lines. The cell line MOLM14 harbors a MLL translocation and expresses the MLL fusion proteins MLL-AF9, respectively, as well as the wildtype protein from the second allele. […] KO-52 was used as a control cell line containing two MLL (KMT2A) wildtype alleles in order to exclude compounds that display general cytotoxic effects.
MOLM14 cells were cultured in RPMI-1640 (Sigma Aldrich) supplemented with 10% heat-inactivated fetal bovine serum (HyClone), 2 mM L-glutamine (Sigma Aldrich) and 50 μg/ml gentamycin (Gibco). KO-52 cell lines were propagated in alpha-MEM (Sigma Aldrich) supplemented with 20% heat-inactivated fetal bovine serum (HyClone), 2 mM L-glutamine (Sigma Aldrich) and 50 μg/ml gentamycin (Gibco).
In order to assess the anti-proliferative effects, 200 MOLM14 cells, or 300 KO-52 cells were seeded in 200 μl media per well in 96-well round bottom, ultra-low attachment plates (Costar, catalogue number 7007). Cell seeding numbers were chosen based on growth curves to ensure linear growth throughout the experiment. Test compounds were added at different concentrations and the DMSO content was normalized to 0.3%. Cells were incubated for 8 days at 37° C. and 5% CO2. Spheroid like growth was measured in real-time by live-cell imaging (IncuCyteZOOM, Essenbio, 4× objective) acquiring images at day 8. Confluence (%) as a measure of spheroid size was determined using an integrated analysis tool.
In order to determine the effect of the test compounds over time, the confluence in each well as a measure of spheroid size, was calculated. Confluence of the highest dose of a reference compound was used as baseline for the LC (Low control) and the confluence of DMSO treated cells was used as 0% cytotoxicity (High Control, HC).
Absolute IC50 values were calculated as percent change in confluence as follows:
LC=Low Control: cells treated with e.g. 1 μM of the cytotoxic agent staurosporin, or e.g. cells treated with a high concentration of an alternative reference compound
GraphPad Prism (version 7.00) was used to calculate the IC50. Dose-response equation was used for the plot of % Effect vs Log 10 compound concentration with a variable slope and fixing the maximum to 100% and the minimum to 0%.

[2] = biological target: T1, menin/MLL (terbium chelate-labeled menin, FITC-MBM1 peptide) (Homo sapiens, UniProt O00255, T541A); experiment: Menin/MLL homogenous time-resolved fluorescence (HTRF) assay; assay type: binding; settings: 30 min incubation
T1 construct: Menin (a.a 1-610-6xhis tag)
T1 sequence (O00255 with tags, fused parts or gaps T541A): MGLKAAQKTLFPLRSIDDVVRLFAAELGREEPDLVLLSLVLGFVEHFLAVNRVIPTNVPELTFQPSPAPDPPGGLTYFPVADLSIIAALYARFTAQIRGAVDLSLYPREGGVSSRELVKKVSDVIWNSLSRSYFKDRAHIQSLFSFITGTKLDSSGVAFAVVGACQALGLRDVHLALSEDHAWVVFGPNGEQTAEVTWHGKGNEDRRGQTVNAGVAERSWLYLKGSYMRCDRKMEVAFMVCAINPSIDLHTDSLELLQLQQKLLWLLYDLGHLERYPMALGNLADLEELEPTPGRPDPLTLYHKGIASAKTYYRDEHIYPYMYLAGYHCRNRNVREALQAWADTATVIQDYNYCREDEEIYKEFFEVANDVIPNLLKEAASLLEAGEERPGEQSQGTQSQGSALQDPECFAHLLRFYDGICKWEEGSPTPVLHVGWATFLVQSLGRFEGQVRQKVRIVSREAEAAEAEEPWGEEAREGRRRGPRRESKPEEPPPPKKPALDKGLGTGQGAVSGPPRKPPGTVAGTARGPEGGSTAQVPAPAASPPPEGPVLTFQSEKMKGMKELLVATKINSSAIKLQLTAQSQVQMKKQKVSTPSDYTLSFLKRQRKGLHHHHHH
Experimental: 1) Menin/MLL Homogenous Time-Resolved Fluorescence (HTRF) Assay
To an untreated, white 384-well microtiter plate was added 40 nL 200× test compound in DMSO and 4 μL 2× terbium chelate-labeled menin (vide infra for preparation) in assay buffer (40 mM Tris.HCl, pH 7.5, 50 mM NaCl, 1 mM DTT (dithiothreitol) and 0.05% Pluronic F-127). After incubation of test compound and terbium chelate-labeled menin for 30 min at ambient temperature, 4 μL 2× FITC-MBM1 peptide (FITC-β-alanine-SARWRFPARPGT-NH2 (SEQ ID NO: 3)) (“FITC” means fluorescein isothiocyanate) in assay buffer was added, the microtiter plate centrifuged at 1000 rpm for 1 min and the assay mixtures incubated for 15 min at ambient temperature. The relative amount of menin FITC-MBM1 complex present in an assay mixture is determined by measuring the homogenous time-resolved fluorescence (HTRF) of the terbium/FITC donor/acceptor fluorophore pair using an EnVision microplate reader (ex. 337 nm/terbium em. 490 nm/FITC em. 520 nm) at ambient temperature. The degree of fluorescence resonance energy transfer (the HTRF value) is expressed as the ratio of the fluorescence emission intensities of the FITC and terbium fluorophores (F^em 520 nm/F^em 490 nm). The final concentrations of reagents in the binding assay are 200 pM terbium chelate-labeled menin, 75 nM FITC-MBM1 peptide and 0.5% DMSO in assay buffer. Dose-response titrations of test compounds are conducted using an 11 point, four-fold serial dilution scheme, starting typically at 10 μM.
Compound potencies were determined by first calculating % inhibition at each compound concentration according to equation 1:
% inhibition=((HC−LC)−(HTRF^compound−LC))/(HC−LC))*100 (Eqn 1)
Where LC and HC are the HTRF values of the assay in the presence or absence of a saturating concentration of a compound that competes with FITC-MBM1 for binding to menin, and HTRF^compound is the measured HTRF value in the presence of the test compound. HC and LC HTRF values represent an average of at least 10 replicates per plate.
% inhibition=Bottom+(Top−Bottom)/(1+10^((logIC50−log[cmpd])*h)) (Eqn 2)
Where Bottom and Top are the lower and upper asymptotes of the dose-response curve, respectively, IC50 is the concentration of compound that yields 50% inhibition of signal and h is the Hill coefficient. IC50 values below 0.1 nM in the HTRF assay were reported as 0.1 nM in the Table below (detection limit).
Preparation of Terbium cryptate labeling of Menin: Menin (a.a 1-610-6xhis tag (“6xhis tag” disclosed as SEQ ID NO: 2), 2.3 mg/mL in 20 mM Hepes (2-[4-(2-Hydroxyethyl)-1-piperazinyl]ethane sulfonic acid), 80 mM NaCl, 5 mM DTT (Dithiothreitol), pH 7.5) was labeled with terbium cryptate as follows. 200 μg of Menin was buffer exchanged into 1× Hepes buffer. 6.67 μM Menin was incubated with 8-fold molar excess NHS (N-hydroxysuccinimide)-terbium cryptate for 40 minutes at room temperature. Half of the labeled protein was purified away from free label by running the reaction over a NAP5 column with elution buffer (0.1 M Hepes, pH 7+0.1% BSA (bovine serum albumin)). The other half was eluted with 0.1 M phosphate buffered saline (PBS), pH7. 400 μl of eluent was collected for each, aliquoted and frozen at −80° C. The final concentration of terbium-labeled Menin protein was 115 μg/mL in Hepes buffer and 85 μg/mL in PBS buffer, respectively.

Structure (SMILES)	IC50 [1] [nM]	IC50 [2] [nM]
CC(=O)N1CCCN([C@H]2C[C@@H]([C@@H](C(C)C)N3CC4(CCN(c5ncnnc5Oc5ccc(F)cc5-c5cncnc5C5CC5)C4)C3)C2)CC1 (single isomer, unassigned) [Compound 61]	23	0.2
CC(C)[C@H]([C@H]1C[C@@H](N2CCC3(CCO3)C2)C1)N1CC2(CCN(c3ncnnc3Oc3ccc(F)cc3-c3cncnc3C3CC3)C2)C1 (single isomer, unassigned) [Compound 212]	8	0.2
CC(C)[C@H]([C@H]1C[C@@H](NC2CS(=O)(=O)C2)C1)N1CC2(CCN(c3ncnnc3Oc3ccc(F)cc3-c3cncnc3C3CC3)C2)C1 (single isomer, unassigned) [Compound 235]	3	0.5
CC(C)[C@H]([C@H]1C[C@@H](N2CCNC(=O)C2)C1)N1CC2(CCN(c3ncnnc3Oc3ccc(F)cc3-c3cncnc3C3CC3)C2)C1 (single isomer, unassigned) [Compound 240]	270	1.9
CC(C)[C@H]([C@H]1C[C@H](N2CCNC(=O)C2)C1)N1CC2(CCN(c3ncnnc3Oc3ccc(F)cc3-c3cncnc3C3CC3)C2)C1 (single isomer, unassigned) [Compound 241]	510	2.1
CC(C)[C@@H]([C@H]1C[C@@H](N2C[C@H]3COC[C@H]3C2)C1)N1CC2(CCN(c3ncnnc3Oc3ccc(F)cc3-c3cncnc3C3CC3)C2)C1 (single isomer, unassigned) [Compound 244]	130	1.6
CC(C)[C@H]([C@H]1C[C@@H](N2CC3(CCCO3)C2)C1)N1CC2(CCN(c3ncnnc3Oc3ccc(F)cc3-c3cncnc3C3CC3)C2)C1 (single isomer, unassigned) [Compound 246]	180	0.3
CC(C)[C@H]([C@H]1C[C@@H](N2CC3(CCOC3)C2)C1)N1CC2(CCN(c3ncnnc3Oc3ccc(F)cc3-c3cncnc3C3CC3)C2)C1 (single isomer, unassigned) [Compound 247]	9	0.1
CC(C)[C@H]([C@H]1C[C@@H](N2CC3(CCS(=O)(=O)CC3)C2)C1)N1CC2(CCN(c3ncnnc3Oc3ccc(F)cc3-c3cncnc3C3CC3)C2)C1 (single isomer, unassigned) [Compound 249]	9	0.1
COC1(C)CN([C@H]2C[C@@H]([C@H](C(C)C)N3CC4(CCN(c5ncnnc5Oc5ccc(F)cc5-c5nnccc5C5CC5)C4)C3)C2)C1 (single isomer, unassigned) [Compound 263]	9	0.2
CC(C)[C@@H]([C@H]1C[C@@H](N2CC3(CCCO3)C2)C1)N1CC2(CCN(c3ncnnc3Oc3ccc(F)cc3-c3nnccc3C3CC3)C2)C1 (single isomer, unassigned) [Compound 265]	11	0.1
CC(C)[C@@H]([C@H]1C[C@@H](N2CC3(CCCCO3)C2)C1)N1CC2(CCN(c3ncnnc3Oc3ccc(F)cc3-c3nnccc3C3CC3)C2)C1 (single isomer, unassigned) [Compound 266]	< 2	0.1
CC(C)[C@H]([C@H]1C[C@@H](N2CC3(CCCCO3)C2)C1)N1CC2(CCN(c3ncnnc3Oc3ccc(F)cc3-c3nnccc3C3CC3)C2)C1 (single isomer, unassigned) [Compound 267]	180	1.3

Next, values leading:

IC50 [1] [nM]	IC50 [2] [nM]	Structure (SMILES)
6	0.1	CC(C)[C@@H]([C@H]1C[C@@H](N2CCC3(CCO3)C2)C1)N1CC2(CCN(c3ncnnc3Oc3ccc(F)cc3-c3nnccc3C3CC3)C2)C1 (single isomer, unassigned) [Compound 268]
> 940	5.6	CC(C)[C@H]([C@H]1C[C@@H](N2CCC3(CCO3)C2)C1)N1CC2(CCN(c3ncnnc3Oc3ccc(F)cc3-c3nnccc3C3CC3)C2)C1 (single isomer, unassigned) [Compound 269]
2	0.2	CC(C)[C@@H]([C@H]1C[C@@H](N2CCC3(CCCO3)C2)C1)N1CC2(CCN(c3ncnnc3Oc3ccc(F)cc3-c3nnccc3C3CC3)C2)C1 (single isomer, unassigned) [Compound 270]
21	0.1	CC(C)[C@@H]([C@H]1C[C@@H](NC2CC2)C1)N1CC2(CCN(c3ncnnc3Oc3ccc(F)cc3-c3nnccc3C3CC3)C2)C1 (single isomer, unassigned) [Compound 272]
250	0.9	CC(=O)N1CCN([C@H]2C[C@@H]([C@H](C(C)C)N3CC4(CCN(c5ncnnc5Oc5ccc(F)cc5-c5nnccc5C5CC5)C4)C3)C2)CC1 (single isomer, unassigned) [Compound 277]
2	0.1	CC(C)[C@@H]([C@H]1C[C@@H](N2C[C@H]3COC[C@H]3C2)C1)N1CC2(CCN(c3ncnnc3Oc3ccc(F)cc3-c3cnncc3C3CC3)C2)C1 (single isomer, unassigned) [Compound 278]
